≈ marks a conversion by molar mass, not a printed value.
What was measured:
[1] = Chemical stability: degradation kinetics in acidic aqueous media (pH ca. 1.2), HPLC recovery; type: physicochemical; conditions: pH value of ca. 1.2 (acetonitrile/0.1 M aqueous HCl 2:3), 37° C.
Method: Degradation kinetics is used to simulate chemical stability of compounds in the acidic part of the gastro intestinal tract. […] Their application as medical drugs to treat human diseases is therefore less restricted and troublesome.
The chemical stability of the compounds of the invention at pH value of ca. 1.2 is determined as follows:
Compound is dissolved in an HPLC vial either in a mixture of acetonitrile/0.1 M aqueous HCl (2:3; pH ca. 1.2) or in a mixture of acetonitrile/McIlvaine buffer pH 7.4 (2:3) to get a concentration of approximately 0.25 mg/ml. The vial was then transferred into an HPLC autosampler system and maintained at a temperature of 37° C. A first sample is taken and injected immediately into a standard HPLC system with a UV DAD detector. Further samples are injected after 2, 4, 6, 8 and 10 hours. Amount of degraded compound is measured by determining the recovery rate of compound [%] for each injection using an HPLC standard gradient method. Therefore the peak area of the main peak for the first injection (AUt0) is determined and set as 100%. Peak area of the main peak is determined also for the further injections (AUtn, n=2, 4, 6, 8, 10) and expressed as fraction of (AUt0)/(AUtn, n=2, 4, 6, 8, 10) [%].

[2] = molecular target: T1, cytochrome P450 2C8-isoenzyme (Homo sapiens, UniProt P10632); assay: Inhibition of CYP-2C8 (deethylation of amodiaquine, human liver microsomes); type: in vitro ADME; conditions: CYP-2C8, human liver microsomes, amodiaquine 1 μM, 37° C.
T1 construct: from tissue; host or cells: human liver microsomes
T1 sequence (P10632 1-490): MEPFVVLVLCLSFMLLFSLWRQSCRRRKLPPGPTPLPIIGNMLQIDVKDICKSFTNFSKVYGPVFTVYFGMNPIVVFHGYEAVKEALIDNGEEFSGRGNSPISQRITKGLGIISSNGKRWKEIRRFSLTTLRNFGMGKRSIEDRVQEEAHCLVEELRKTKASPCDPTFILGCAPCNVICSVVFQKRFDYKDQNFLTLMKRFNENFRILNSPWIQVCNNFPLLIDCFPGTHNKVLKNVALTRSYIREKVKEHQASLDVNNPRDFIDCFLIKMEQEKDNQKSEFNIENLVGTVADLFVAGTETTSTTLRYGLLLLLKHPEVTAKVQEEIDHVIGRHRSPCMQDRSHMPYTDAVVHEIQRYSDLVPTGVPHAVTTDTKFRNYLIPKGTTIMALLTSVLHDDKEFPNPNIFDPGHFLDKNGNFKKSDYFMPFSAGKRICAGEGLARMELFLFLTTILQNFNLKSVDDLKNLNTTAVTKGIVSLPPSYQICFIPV
Method: The inhibition of cytochrome P450 2C8-isoenzyme catalyzed deethylation of amodiaquine by the test compound is assayed at 37° C. with human liver microsomes. All assays are carried out on a robotic system in 96 well plates. The final incubation volume contains TRIS buffer (0.1 M), MgCl2 (5 mM), human liver microsomes (0.05 mg/mL), amodiaquine (1 μM) and the test compound at five different concentrations or no compound (high control) in duplicate (e.g. highest concentration 10-50 μM with subsequent serial 1:4 dilutions). Following a short preincubation period, reactions are started with the cofactor (NADPH, 1 mM) and stopped by cooling the incubation down to 8° C. and subsequently by addition of one volume of acetonitrile. An internal standard solution—the stable isotope d5-desethylamodiaquine—is added after quenching of incubations. Peak area analyte (=metabolite formed) and internal standard is determined by LC-MS/MS. The resulting peak area ratio analyte to internal standard in these incubations is compared to a control activity containing no test compound. Within each of the assay runs, the IC50 of a positive control inhibitor (Montelukast) is determined. Experimental IC50 values are calculated by least square regression according to the following equation: % control activity=(100% control activity/(1+(I/IC50)S))−B with I=inhibitor concentration; S=slope factor; B=background activity (lower plateau of the inhibition curve)
(§1) If the inhibition of the reaction is already >50% at the lowest concentration of the test compound, the IC50 is assigned “<lowest concentration tested” (usually <0.4 μM). If the inhibition of the reaction is still <50% at the highest concentration of the test compound, the IC50 is assigned “>highest concentration tested” (usually >50 μM).

[3] = molecular target: T2, cytochrome P450 2C9-isoenzyme (Homo sapiens, UniProt P11712); assay: Inhibition of CYP-2C9 (hydroxylation of diclofenac, human liver microsomes); type: in vitro ADME; conditions: CYP-2C9, human liver microsomes, diclofenac 10 μM, 37° C.
T2 construct: from tissue; host or cells: human liver microsomes
T2 sequence (P11712 whole entry): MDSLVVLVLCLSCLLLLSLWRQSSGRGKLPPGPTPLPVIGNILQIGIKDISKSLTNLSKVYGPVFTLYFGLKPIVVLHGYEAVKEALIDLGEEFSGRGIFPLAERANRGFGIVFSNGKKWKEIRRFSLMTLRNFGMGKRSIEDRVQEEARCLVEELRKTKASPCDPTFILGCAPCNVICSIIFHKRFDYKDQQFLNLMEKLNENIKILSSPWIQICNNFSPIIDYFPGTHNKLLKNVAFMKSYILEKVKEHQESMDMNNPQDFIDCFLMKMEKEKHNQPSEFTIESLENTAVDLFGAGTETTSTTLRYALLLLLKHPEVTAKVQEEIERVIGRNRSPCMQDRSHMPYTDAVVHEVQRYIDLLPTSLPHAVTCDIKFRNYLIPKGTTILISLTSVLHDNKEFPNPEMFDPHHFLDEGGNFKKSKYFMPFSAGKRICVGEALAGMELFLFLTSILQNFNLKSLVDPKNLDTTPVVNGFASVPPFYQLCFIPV
Method: The inhibition of cytochrome P450 2C9-isoenzyme catalyzed hydroxylation of diclofenac by the test compound is assayed at 37° C. with human liver microsomes. All assays are carried out on a robotic system in 96 well plates. The final incubation volume contains TRIS buffer (0.1 M), MgCl2 (5 mM), human liver microsomes (0.1 mg/mL), diclofenac (10 μM) and the test compound at five different concentrations or no compound (high control) in duplicate (e.g., highest concentration 10-50 μM with subsequent serial 1:4 dilutions). Following a short preincubation period, reactions are started with the cofactor (NADPH, 1 mM) and stopped by cooling the incubation down to 8° C. and subsequently by addition of one volume of acetonitrile. An internal standard solution—the stable isotope ^13C6-hydroxydiclofenac—is added after quenching of incubations. Peak area analyte (=metabolite formed) and internal standard is determined by LC-MS/MS. The resulting peak area ratio analyte to internal standard in these incubations is compared to a control activity containing no test compound. Within each of the assay runs, the IC50 of a positive control inhibitor (sulfaphenazole) is determined. Experimental IC50 values are calculated by least square regression according to the following equation: % control activity=(100% control activity/(1+(I/IC50)S))−B with I=inhibitor concentration; S=slope factor; B=background activity (lower plateau of the inhibition curve)
as §1

[4] = Aqueous solubility in buffer vs acetonitrile/water (1/1), LC-UV; type: physicochemical; conditions: kinetic from dmso stock, buffer pH 2.2, 24 h shaking, 2.5% DMSO
Method: The aqueous solubility of the compounds of the invention is determined by comparing the amount dissolved in buffer to the amount in an acetonitrile/water (1/1) solution. Starting from a 10 mM DMSO stock solution aliquots are diluted with acetonitrile/water (1/1) or buffer, respectively. After 24 h of shaking, the solutions are filtrated and analyzed by LC-UV. The amount dissolved in buffer is compared to the amount in the acetonitrile solution.
Solubility is usually being measured from 0.001 to 0.125 mg/mL at a DMSO concentration of 2.5%. If more than 90% of the compound is dissolved in buffer, the value is marked with “>”.

[5] = molecular target: human GPR40 receptor (Homo sapiens, UniProt O14842); assay: IP1 accumulation measurements using the IPOne assay system (1321N1 cells stably expressing human GPR40 receptor); type: cell-based; conditions: 1321N1 cells expressing human GPR40, 1 h stimulation at 37° C.
Chain of human GPR40 receptor (O14842 whole entry): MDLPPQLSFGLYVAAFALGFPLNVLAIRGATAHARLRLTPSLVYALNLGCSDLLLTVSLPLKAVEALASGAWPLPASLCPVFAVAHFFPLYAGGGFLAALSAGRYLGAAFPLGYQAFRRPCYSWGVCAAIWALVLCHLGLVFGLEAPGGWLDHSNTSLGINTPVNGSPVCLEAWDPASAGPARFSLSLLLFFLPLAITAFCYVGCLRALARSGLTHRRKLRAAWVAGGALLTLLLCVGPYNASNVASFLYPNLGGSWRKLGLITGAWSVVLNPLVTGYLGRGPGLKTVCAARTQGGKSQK
Method: IP1 accumulation measurements using the IPOne assay system—1321N1 cells stably expressing human GPR40 receptor (Euroscreen, Belgium) are seeded 24 h before the assay in white 384-well plates in culture medium containing 10% FCS, 1% Na-Pyruvate and 400 μg/mL G418. IP1 is assayed according to the manufacturer's description (Cisbio Bioassays, France). In brief, the assay is started by substitution of the culture medium by stimulation buffer (Hepes 10 mM, CaCl2 1 mM, MgCl2 0.5 mM, KCl 4.2 mM, NaCl 146 mM, glucose 5.5 mM and LiCl 50 mM, pH 7.4). Cells are stimulated for 1 h at 37° C., 5% CO2 by addition of the compounds that are diluted in stimulation buffer containing LiCl. Assays are stopped by adding HTRF-conjugates (IP1-d2 and Anti-IP1 cryptate Tb) and lysis buffer, provided by the manufacturer. After an incubation time of 1 h at room temperature plates are measured using an EnVision™, Perkin Elmer. The obtained fluorescence ratios at 665/615 […] are then used to calculate the pEC50 values using Assay Explorer 3.3 Software (Accelrys, Inc.) by interpolation using an IP1 reference curve and subsequent sigmoidal curve fitting allowing for a variable hill slope.

| SMILES | Amount of degradation after 2 h [1] [%] | IC50 [2] [µM] | IC50 [3] [µM] | solubility at 24 h [4] [µg/mL] | EC50 [5] [µM] |
| --- | --- | --- | --- | --- | --- |
| Cc1cc(-c2nnn(C)n2)cc(C)c1-c1cccc2c1CC[C@H]2Nc1ccc([C@H]2C[C@@H]2C(=O)O)cn1 [Example 1, (1S,2S)-2-(6-{(R)-4-[2,6-Dimethyl-4-(2-methyl-2H-tetrazol-5-yl)-phenyl]-indan-1-ylamino}-pyridin-3-yl)-cyclopropanecarboxylic acid] | <0.5 | 16 | 48 | 67 (≈ 139 µM) | 0.007 |
| Cc1cc(OCCC(C)(C)O)cc(C)c1-c1cccc2c1CC[C@H]2Nc1ccc([C@H]2C[C@@H]2C(=O)O)cn1 [Example 2, (1S,2S)-2-(6-{(R)-4-[4-(3-Hydroxy-3-methyl-butoxy)-2,6-dimethyl-phenyl]-indan-1-ylamino}-pyridin-3-yl)-cyclopropanecarboxylic acid] | <0.5 | 30 | > 50 | 83 (≈ 166 µM) | 0.011 |
| Cc1cc(OCCC(C)(C)O)cc(C)c1-c1ccc(F)c2c1CC[C@H]2Nc1ccc([C@H]2C[C@@H]2C(=O)O)cn1 [Example 4, (1S,2S)-2-(6-{(R)-7-Fluoro-4-[4-(3-hydroxy-3-methyl-butoxy)-2,6-dimethyl-phenyl]-indan-1-ylamino}-pyridin-3-yl)-cyclopropanecarboxylic acid] | <0.5 | 46 | > 50 | 89 (≈ 172 µM) | 0.008 |
| COc1cc(C)c(-c2ccc(F)c3c2CC[C@H]3Nc2ccc([C@H]3C[C@@H]3C(=O)O)cn2)c(C)c1 [Example 19] | <1.0 | 26 | 35 | 67 (≈ 150 µM) | 0.016 |
| Cc1cc(C#N)cc(C)c1-c1ccc(F)c2c1CC[C@H]2Nc1ccc([C@H]2C[C@@H]2C(=O)O)cn1 [Example 20] | <0.5 | 24 | 33 | 66 (≈ 149 µM) | 0.018 |
| Cc1cc(C(N)=O)cc(C)c1-c1ccc(F)c2c1CC[C@H]2Nc1ccc([C@H]2C[C@@H]2C(=O)O)cn1 [Example 21] | <0.5 | > 50 | > 50 | 83 (≈ 181 µM) | 0.06 |
| CCc1cccc(CC)c1-c1ccc(F)c2c1CC[C@H]2Nc1ccc([C@H]2C[C@@H]2C(=O)O)cn1 [Example 23] | <0.5 | 11 | 15 | 75 (≈ 169 µM) | 0.005 |
| Cc1nc(-c2cc(C)c(-c3ccc(F)c4c3CC[C@H]4Nc3ccc([C@H]4C[C@@H]4C(=O)O)cn3)c(C)c2)no1 [Example 26] | <0.5 | 35 | > 50 | 65 (≈ 130 µM) | 0.004 |
| Cc1cc(-c2ccnn2C)cc(C)c1-c1ccc(F)c2c1CC[C@H]2Nc1ccc([C@H]2C[C@@H]2C(=O)O)cn1 [Example 31] | <0.5 | 9 | 27 | 93 (≈ 187 µM) | 0.031 |
| Cc1cc(OCC(C)(C)C#N)cc(C)c1-c1ccc(F)c2c1CC[C@H]2Nc1ccc([C@H]2C[C@@H]2C(=O)O)cn1 [Example 35] | <0.5 | 18 | 34 | 59 (≈ 115 µM) | 0.023 |
| Cc1cc(-c2ccn(C)c(=O)c2)cc(C)c1-c1ccc(F)c2c1CC[C@H]2Nc1ccc([C@H]2C[C@@H]2C(=O)O)cn1 [Example 36] | <0.5 | 10 | > 50 | 107 (≈ 204 µM) | 0.006 |
| Cc1cc(O)cc(C)c1-c1ccc(F)c2c1CC[C@H]2Nc1ccc([C@H]2C[C@@H]2C(=O)O)cn1 [Example 41] | <1.5 | 34 | > 50 | 103 (≈ 238 µM) | 0.033 |
| N#CC1(c2ccccc2-c2ccc(F)c3c2CC[C@H]3Nc2ccc([C@H]3C[C@@H]3C(=O)O)cn2)CC1 [Example 46] | <0.5 | 32 | 9 | 85 (≈ 187 µM) | 0.629 |
| CC(C)c1ccccc1-c1ccc(F)c2c1CC[C@H]2Nc1ccc([C@H]2C[C@@H]2C(=O)O)cn1 [Example 47] | <0.5 | 12 | 14 | 72 (≈ 167 µM) | 0.026 |
| O=C(O)[C@H]1C[C@@H]1c1ccc(N[C@@H]2CCc3c(-c4c(Cl)cccc4Cl)ccc(F)c32)nc1 [Example 50] | <1.0 | 21 | 22 | 69 (≈ 151 µM) | 0.013 |
